Converted amounts (≈) assume the structure as drawn.
Settings: buffer; pH 7.4; 200.0 µM

solubility kinetic	SMILES
> 37.4 µg/mL	COc1ccc(CCNC(=O)/C=C/C(=O)O)cc1
28.3 µg/mL (≈ 100 µM)	Cc1ccc(S(=O)(=O)Nc2ccc(Cl)cn2)cc1
> 50.7 µg/mL	O=C(COC(=O)CN1C(=O)c2ccccc2C1=O)Nc1ccccc1
> 64.9 µg/mL	COc1cccc(CN(C)C(=O)c2cc(S(=O)(=O)N3CCCC3)ccc2C)c1OC
> 49.4 µg/mL	CC1CCN(C(=O)CNC(=O)c2ccc(Br)o2)CC1
> 35.3 µg/mL	O=C(Cc1cccs1)Nc1ccccc1F
34.5 µg/mL (≈ 108 µM)	C#CCOc1ccc(C2C(C#N)=C(N)Oc3cc(O)ccc32)cc1 (stereo not given)
4.3 µg/mL (≈ 12.1 µM)	COc1ccc(S(=O)(=O)NCc2ccccc2)cc1Br
3.8 µg/mL (≈ 8.67 µM)	COc1cc(OC)cc(C(=O)N[C@H](C(=O)OCC(=O)c2c[nH]c3ccccc23)C(C)C)c1
9.1 µg/mL (≈ 23.1 µM)	O=C(COC(=O)c1cc([N+](=O)[O-])ccc1NCCO)Nc1cccnc1Cl
44.1 µg/mL (≈ 129 µM)	CCOC(=O)C1CCN(S(=O)(=O)c2ccccc2[N+](=O)[O-])CC1
> 44.6 µg/mL	C=CCn1cccc(C(=O)Nc2ccc(N(C)C)cc2)c1=O
24.2 µg/mL (≈ 83.9 µM)	Cc1ccc(-c2nc(NCC3CCCO3)sc2C)cc1 (stereo not given)
> 58.3 µg/mL	CCOC(=O)N1CCN(C(=O)C2CCN(C(=O)Nc3ccccc3)CC2)CC1
< 0.4 µg/mL	O=[N+]([O-])c1ccc(-c2ccc(S(=O)(=O)N3CCOCC3)cc2)cc1
44.4 µg/mL (≈ 140 µM)	O=C(Nc1cccc(F)c1)C1CCN(C(=O)c2ccco2)CC1
0.8 µg/mL (≈ 2.85 µM)	O=C1NC(=Nc2ccccc2)S/C1=C\c1ccccc1
48.5 µg/mL (≈ 143 µM)	CCCS(=O)(=O)N1CCCC(C(=O)NCCc2ccccc2)C1 (stereo not given)
8.5 µg/mL (≈ 37.9 µM)	Brc1ccccc1-c1cnco1

Second part, the compound before the results:

SMILES	solubility kinetic
Cc1cccc(N2CCN(C(=O)NCc3ccc(F)cc3)CC2)c1C	3.2 µg/mL (≈ 9.37 µM)
COc1ccc(OC)c(NC(=O)NC2CCCCCCC2)c1	2.2 µg/mL (≈ 7.18 µM)
CCN1C(C#N)=C(C#N)N=C(C)CC1(C)C	29.8 µg/mL (≈ 138 µM)
Cc1ccccc1C1NC(=O)c2ccccc2O1 (stereo not given)	18.3 µg/mL (≈ 76.5 µM)
Cc1c(N2CCCC2)cc2c(c1N)C(C)(C)CC2(C)C	19.2 µg/mL (≈ 70.5 µM)
Cc1ccc(S(=O)(=O)NCC2CCCO2)cc1 (stereo not given)	> 38.3 µg/mL
COc1cc(Br)c(Br)c(Br)c1N	0.9 µg/mL (≈ 2.5 µM)
CC(=O)c1sccc1NC(=O)CC(C)(C)CC(=O)O	32.5 µg/mL (≈ 115 µM)
Cc1nc2ccc(NS(=O)(=O)c3ccc(F)c(F)c3F)cc2s1	50.7 µg/mL (≈ 141 µM)
S=C1NCN(Cc2ccccc2)CN1C1CCCCC1	4.5 µg/mL (≈ 15.5 µM)
CC1(C)C(CC2OCC(CN3CCCCC3)O2)[C@H]2CC[C@@H]1C2 (stereo not given in full)	25.9 µg/mL (≈ 84.2 µM)
O=C(CSc1nncn1-c1ccccc1)NC1CCCC1	> 45.4 µg/mL
COc1cc(N2CCCC2)ccc1C=O	29 µg/mL (≈ 141 µM)
Cc1ccc(N2C(=O)CSC2=S)cc1C	< 0.5 µg/mL
Cc1ccc(SCCSc2nc(C)cc(=O)[nH]2)cc1	2.1 µg/mL (≈ 7.18 µM)
O=C(Cc1ccccc1F)Nc1nc2ccccc2[nH]1	2.7 µg/mL (≈ 10 µM)
Cn1c(-c2ccccc2)c(C=O)c2ccccc21	19.5 µg/mL (≈ 82.9 µM)
COc1ccc(/C=C2\N=C(C)OC2=O)cc1OC	36.9 µg/mL (≈ 149 µM)
O=C(O)c1ccc(-n2cc(C(=O)c3ccccc3O)cn2)cc1	> 46.2 µg/mL
COc1ccc(S(=O)(=O)N(Cc2ccccc2)c2ccccc2C(=O)O)cc1	53.7 µg/mL (≈ 135 µM)
c1ccc(Nc2nc(-c3ccccc3)ns2)cc1	< 0.2 µg/mL

SMILES	solubility kinetic
CN(C(=O)CSc1ncn[nH]1)C1(C#N)CCCCC1	> 41.9 µg/mL
O=C(O)CN1C(=O)/C(=C/c2ccc(SCc3ccccc3)o2)SC1=S	21.2 µg/mL (≈ 54.2 µM)
O=C(NCC1CCCO1)c1ccc(-c2cccc(C(F)(F)F)c2)o1 (stereo not given)	38.4 µg/mL (≈ 113 µM)
CC(C)(C)NC(=O)C1CCN(C(=O)c2ccco2)CC1	41.2 µg/mL (≈ 148 µM)
C/C(=N\NC(N)=S)c1cccnc1	> 29.1 µg/mL
COc1ccc(NC(=O)c2ccccc2SC)c(OC)c1	> 45.5 µg/mL
CC1CN(C(=O)C2CC(=O)N(c3ccc(Cl)cc3)C2)CC(C)O1 (stereo not given)	> 50.5 µg/mL
Cc1c(C)n(Cc2ccccc2)c2ccc(C(=O)O)cc12	> 41.9 µg/mL
O=C(O)CCCCCNC(=O)/C(=C\c1ccco1)NC(=O)c1ccco1	44.3 µg/mL (≈ 123 µM)
O=C(CN1C(=O)C2CCCCC2C1=O)Nc1nccs1 (stereo not given)	> 44 µg/mL
CN1CCCC(OC(=O)c2cccc(Br)c2)C1.Cl (stereo not given)	> 50.2 µg/mL
O=C(NCCc1c[nH]c2ccccc12)c1ccccc1Cl	23.2 µg/mL (≈ 77.7 µM)
Cc1ccc(-c2cnc(-c3ccccc3C(=O)O)o2)cc1	35.2 µg/mL (≈ 126 µM)
COC(=O)c1cccc(NC(=O)Cc2ccsc2)c1	> 41.3 µg/mL
Cn1c(=O)c2c(nc(SCc3ccc(F)cc3)n2C)n(C)c1=O	2 µg/mL (≈ 5.98 µM)
O=Cc1ccc(Oc2nc(Cl)ncc2F)cc1	36.8 µg/mL (≈ 146 µM)
Cc1ccc(C(=O)COC(=O)CN2C(=O)C3C4CCC(C4)C3C2=O)cc1C (stereo not given)	46.2 µg/mL (≈ 125 µM)
CC(C)OC(=O)c1ccc2nc3ccccc3nc2c1	1 µg/mL (≈ 3.76 µM)
Cn1c(SCC(=O)NC2CCCC2)nnc1C(F)(F)F	> 46.2 µg/mL
Cc1ccccc1C(=O)c1cccn1CC(=O)N1CCCCC1	> 46.6 µg/mL

Source: PubChem BioAssay AID1996
